Results published in a melting point compilation (Tetko et al.).

With `C[C@]12CC[C@H]3[C@@H](CCC4CC(=O)CC[C@@]43C)C1=CCC2=O` (some centres undefined) the melting point was 151 °C.
`Brc1cncc(-c2nnn[nH]2)c1` gave a melting point of 226 °C.
Work on `Clc1nnnn1-c1ccccc1` yielded a melting point of 123 °C.
`O=C1CC(=O)CC(c2ccccc2)C1` gave a melting point of 188 °C.
Compound `CC(=O)c1ccc(F)c(Cl)c1` has a melting point of 42 to 44 °C.
Work on `Nc1cccc2cc3ccccc3cc12` yielded a melting point of 116 °C.
Work on `Cc1ccc(C(=O)c2ccccc2)cc1` yielded a melting point of 59.5 °C.
`CC(=O)c1ccc2c(c1)OCO2` showed a melting point of 86 to 89 °C.
`Cc1cccc(F)c1` showed a melting point of -87 °C.
With `Cc1c[nH]c(-c2ccccc2)n1` the melting point was 175 °C.
Compound `COc1cc(Br)cc(C=O)c1O` has a melting point of 129 to 131 °C.
Compound `c1ccc(-c2nnc3n2NC(c2ccccc2)S3)cc1` (centres undefined) has a melting point of 83 °C.
`COc1cc(Br)cc(F)c1F` gave a melting point of 35 °C.
For `Nc1ccc(N2CCOCC2)c(Cl)c1`, the melting point was 102 to 104 °C.
For `CCCc1ccccn1`, the melting point was 2 °C.
With `CCC(C)OC(=O)C1=C2c3ncccc3ON2C(Cl)C(Cl)C1Cl` (centres undefined) the melting point was 97 °C.
In the case of `OC12CCCCCC1c1ccccc12` (centres undefined), the melting point is reported as 100 °C.
In the case of `CCOC(=O)C(C#N)=Cc1ccc(-c2ccc(C)cc2)o1`, the melting point is reported as 123 to 124 °C.
With `N#CC(=Cc1cccnc1)C1N=c2ccccc2=N1` the melting point was 229 °C.
For `O=S(=O)(CCl)c1ccccc1`, the melting point was 54 °C.
`CC(=O)NC1CCSC1=O` (racemic) gave a melting point of 110 °C.
`CCCC[N+](=O)[O-]` showed a melting point of -81.3 °C.
`ClC1Cc2cc3c(cc21)OCO3` (centres undefined) showed a melting point of 55 °C.
In the case of `Cc1cc2c(C)ccc(C)c2cc1C`, the melting point is reported as 64 °C.
Compound `Ic1ccc(OC2CCOCC2)cc1` has a melting point of 88.5 to 89.5 °C.
`CSCCC(NC(=O)c1ccc(C(F)(F)F)cc1)C(=O)NN` (centres undefined) gave a melting point of 181 to 184 °C.
In the case of `CCOC(=O)c1cc2c(=O)oc3ccccc3c2[nH]c1=O`, the melting point is reported as 313 to 315 °C.
In the case of `CC1=C(Cl)CCP(=O)(c2ccccc2)C1` (centres undefined), the melting point is reported as 143 °C.
In the case of `O=C(Oc1c(F)c(F)c(F)c(F)c1F)c1ccc(-c2cccs2)nc1`, the melting point is reported as 140 to 142 °C.
`CC(C)C(C)C(C)(C)C` (centres undefined) showed a melting point of -121 °C.
With `c1ccc2c(N=Nc3cccc4ccccc34)cccc2c1` the melting point was 190 °C.
`NNC(=O)c1ccncc1` gave a melting point of 171 °C.
`Nc1ccc(N)c2ccccc12` gave a melting point of 120 °C.
For `CCCCC(O)C(=O)O` (centres undefined), the melting point was 61 °C.
For `O=C(NC(=S)c1ccc[nH]1)Nc1ccccc1`, the melting point was 205 to 208 °C.
`CCOC(=O)c1cc2cc(F)ccc2[nH]1` gave a melting point of 150 °C.
`CCCCC(=O)CCCC` gave a melting point of -3.8 °C.
With `C=CCC1(CC=C)C(=O)NC(=O)NC1=O` the melting point was 172 to 173 °C.
`C#CC[C@H](NC(=O)OCC1c2ccccc2-c2ccccc21)C(=O)O` gave a melting point of 175 °C.
`CCCCCCCCCCCCCCCCCCCCCCC(=O)O` gave a melting point of 79 to 80 °C.
Compound `Cc1cc(Cl)ccc1N` has a melting point of 30.3 °C.
Compound `c1cnc(SSc2ncccn2)nc1` has a melting point of 139 to 141 °C.
Work on `NCc1cc2ccccc2s1` yielded a melting point of 58 to 59 °C.
In the case of `CC(=O)Nc1ccc(OC(=O)c2ccccc2O)cc1`, the melting point is reported as 187 °C.
Work on `CC[C@@H]1CCC[C@H]1CC` (relative stereo) yielded a melting point of -95 °C.
For `Cn1c(C(=O)O)cc2sccc21`, the melting point was 154 to 156 °C.
With `c1ccc(P(CCP(c2ccccc2)c2ccccc2)c2ccccc2)cc1` the melting point was 141 °C.
With `O=C1C(=O)N(O)C2CCCCC2N1O` (centres undefined) the melting point was 243 to 245 °C.
For `CC1OC(n2ccc(NC(=O)c3ccc(NC(=O)C(C)(N)CO)cc3)nc2=O)CCC1OC1OC(C)C(N(C)C)C(O)C1O` (centres undefined), the melting point was 167 °C.
Compound `NCCCS(=O)(=O)O` has a melting point of 270 °C.
`CC(=O)Nc1ccc(N)cn1` gave a melting point of 154 °C.
With `CCC(N)CO` (centres undefined) the melting point was -2 °C.
`OCc1ccc(Cl)nc1` gave a melting point of 48 °C.
With `O=C(O)C=C(F)C(F)(F)C(F)(F)C(F)(F)C(F)(F)C(F)(F)C(F)(F)C(F)(F)F` the melting point was 105 °C.
In the case of `Cc1cc(I)ccc1N`, the melting point is reported as 86 °C.
Work on `COc1ccc(Br)cc1S(=O)(=O)Cl` yielded a melting point of 114 °C.
`Nc1nc(-c2ccc3c(c2)Cc2ccccc2-3)cs1` gave a melting point of 261 to 264 °C.
`NC(=S)c1ccc(Cl)cc1Cl` gave a melting point of 135 to 136 °C.
`COc1c(Cl)cc([N+](=O)[O-])cc1Cl` showed a melting point of 97 to 100 °C.
`NC(Cc1ccc(Cl)cc1)C(=O)O` (centres undefined) gave a melting point of 260 °C.
`O=Cc1ccccc1OCc1ccccc1Cl` showed a melting point of 84 to 86 °C.
For `O=C1OC(c2ccccn2)Cc2ccccc21` (centres undefined), the melting point was 156 °C.
`O=C=Nc1cccc(C(F)(F)F)c1` showed a melting point of -26 °C.
Work on `CC(C#N)c1ccccc1[N+](=O)[O-]` (centres undefined) yielded a melting point of 51 °C.
In the case of `BrCc1cc(Br)cc(Br)c1`, the melting point is reported as 94 °C.
Compound `Cc1cc(C)c(O)cc1C` has a melting point of 72 °C.
In the case of `CCc1cnc(C2=NC(C)(C(C)C)C(=O)N2)c(C(=O)O)c1` (centres undefined), the melting point is reported as 171 °C.
`O=C(O)c1cc(Br)cc(Br)c1` showed a melting point of 224 to 226 °C.
For `CN(C)c1ccc(C=CC(=O)O)cc1`, the melting point was 225 to 228 °C.
`O=C1c2ccc(O)cc2OC(c2ccc(O)c(O)c2)C1O` (centres undefined) gave a melting point of 227 °C.
For `COc1ccc(O)c([N+](=O)[O-])c1`, the melting point was 79 °C.
In the case of `FC(F)CBr`, the melting point is reported as -75 °C.
Compound `O=Cc1ccc(-c2ccc(Br)cc2)o1` has a melting point of 150 to 155 °C.
`Oc1ccc2ccncc2c1` showed a melting point of 227 °C.
`CCOC(=O)N/C=C1/C(=O)C2(C)CCC1C2(C)C` (centres undefined) gave a melting point of 162 °C.
`Nc1c(Cl)cccc1C(=O)O` gave a melting point of 190 °C.
With `O=C(Nc1ccc([N+](=O)[O-])cc1[N+](=O)[O-])C(C(F)(F)F)(C(F)(F)F)C(F)(F)F` the melting point was 164 °C.
`CC(CO)C1CCC2C3CCC4=CC(=O)C=CC4(C)C3CCC12C` (centres undefined) showed a melting point of 178 to 184 °C.
`COc1nc(Cl)nc(OC)n1` gave a melting point of 77 °C.
Work on `O=S(=O)(NO)c1ccccc1` yielded a melting point of 120 to 125 °C.
Compound `Fc1ccc(Cc2ccc(F)cc2)cc1` has a melting point of 29 to 30 °C.
`c1c2c(cc3c1CCCC3)CCCC2` gave a melting point of 78 °C.
`O=C(O)c1ccccc1C(=O)c1ccc(F)cc1` showed a melting point of 140 to 141 °C.
With `Cc1ccc(C(=O)OC2CC(C#N)OC2OC(=O)c2ccc(C)cc2)cc1` (centres undefined) the melting point was 110 to 111 °C.
Work on `CCOC(=O)Nc1ccc2cc3ccc4c(c3nc2c1)COC(=O)N4` yielded a melting point of 235 °C.
Compound `COc1ccc(Br)cc1C=CC(=O)O` has a melting point of 224 to 229 °C.
Work on `CCCCCCCCOc1ccccc1OCCCCCCCC` yielded a melting point of 22 to 25 °C.
`NS(=O)(=O)c1ccc(C(F)(F)F)cc1` gave a melting point of 180 °C.
For `O=C(O)c1cccc(-n2cccn2)c1`, the melting point was 154 to 156 °C.
In the case of `N#Cc1cc(F)ccc1Cl`, the melting point is reported as 84 °C.
In the case of `Cc1c(C)c2c(c(C)c1O)CCC(C)(C(=O)O)O2` (centres undefined), the melting point is reported as 189 °C.
In the case of `NC(=O)CSSCC(N)=O`, the melting point is reported as 162 °C.
Compound `N#CCCCOc1ccccc1` has a melting point of 45.5 °C.
Compound `O=C1c2ccccc2C2NCCCN12` (centres undefined) has a melting point of 130 to 132 °C.
Compound `Nc1ccccc1-n1cccn1` has a melting point of 44 to 46 °C.
For `COc1cc(C(=O)Oc2ccc(/C=C/C(=O)c3ccccc3)cc2)cc(OC)c1OC`, the melting point was 95 °C.
`O=C(Cl)CCCCl` showed a melting point of -47 °C.
For `CCOC(=O)C(=O)C(C#N)c1ccccc1` (centres undefined), the melting point was 127 °C.
Work on `CC1(CC(=O)O)OCCc2sccc21` (centres undefined) yielded a melting point of 92.5 to 93.5 °C.
